Series [1] relates to stem cells. The note with it: stem cells cultured in medium with ciprofloxacin.
Protocol: Stem cells (collected from tissue donated by a hospital for non-profit patient treatment) were cultured by attaching 80% or more of the stem cells to a Dulbecco's modified Eagle's medium (DMEM) or a-MEM containing 1 to 10% FBS.
Thereafter, the cells were collected using Trypsin-EDTA, counted, seeded at 1×10^3 cells/well in a 96-well plate, and attached to the plate for 24 hours. Thereafter, ciprofloxacin (Samsung Pharmaceutical, ciprofloxacin injection) was administered according to the concentration, and then cytotoxicity was confirmed for a specific time (up to 166 hours). Next, each well was treated with Cell Counting Kit-8 (hereinafter referred to as CCK, DOJINDO, Cat. No. CK04-13) at 10 μl/well, and then cultured at 37° C. in a 5% CO2 incubator for 1 hour.
The absorbance was measured using an absorbance meter (Bio-Tek, Epoch2) and quantitatively calculated.
In series [2] the test system is stem cells. The series can be described thus: Induction of differentiation of stem cells into chondrocytes (3D), Alcian blue staining. Format: cell-based. The note with it: 3D culture, 0.1 to 6 μM ciprofloxacin, 16 days.
Protocol: Stem cells (collected from tissue donated by a hospital for non-profit patient treatment) were cultured by attaching 80% or more of the stem cells to a Dulbecco's modified Eagle's medium (DMEM) or a-MEM containing 1 to 10% FBS. Thereafter, the cells were collected and counted using Trypsin-EDTA, and 5×10^5 cells were inoculated into a 15 ml conical tube. A medium containing 0.1 to 6 μM ciprofloxacin was centrifuged to settle the cells at 150 g using a centrifuge (Hanil Science Co., Ltd., Combi415). The cells were cultured in a 5% CO2 incubator at 37° C. while exchanging the medium every 2 to 3 days. The stem cells induced to differentiate for 16 days were washed with DPBS and fixed with 4% paraformaldehyde for 1 hour. The completely fixed cells were stained using an Alcian blue solution (Merck, B8438) for 1 hour to 24 hours. Thereafter, the cells were washed once with 1 N HCl, and then further washed three times with sterile distilled water. Finally, the washed sample was observed.
Series [3] relates to stem cells. The series can be described thus: Induction of differentiation of stem cells into chondrocytes (2D), Alcian blue staining. Format: cell-based. Conditions: 2D culture, induced to differentiate for 16 days.
Protocol: Stem cells (collected from tissue donated by a hospital for non-profit patient treatment) were cultured by attaching 80% or more of the stem cells to a Dulbecco's modified Eagle's medium (DMEM) or a-MEM containing 1 to 10% FBS. Thereafter, the cells were collected using Trypsin-EDTA, counted, seeded at 1×10^3 cells/well in a 96-well plate, and attached to the plate for 24 hours. […] Thereafter, the stem cells induced to differentiate for 16 days were washed with DPBS and fixed with 4% paraformaldehyde for 1 hour. The completely fixed cells were stained using an Alcian blue solution (Merck, B8438) for 1 hour to 1 day. Thereafter, the cells were washed once with 1 N HCl, and then further washed three times with sterile distilled water. Finally, the washed sample was observed under a microscope.

For the molecule `O=C(O)c1cn(C2CC2)c2cc(N3CCNCC3)c(F)cc2c1=O` [ciprofloxacin], the “cell viability compared to a control (CONT)” value with stem cells [1] is “a significant difference in cell viability was not exhibited”. Further, the “differentiation into chondrocytes, Alcian blue staining (3D)” value with stem cells [2] is recorded as “Alcian blue staining, which appears depending on SOX9, was present throughout the chondrocytes”. For the same molecule, in the series on stem cells [3], the “differentiation into chondrocytes, Alcian blue staining (2D)” value was “Alcian blue staining, which appears depending on SOX9, was present throughout the chondrocytes”.

(Values after US20240376433A1, “STEM CELL INDUCTION INTO PRECHONDROCYTES AND DIFFERENTIATION INTO CHONDROCYTES BY CIPROFLOXACIN” (SMART CELL LAB CO., LTD., priority 2021, published 2024).)
